The values that follow come from patent publication US9315475B2 (MERCK SHARP & DOHME CORP., priority 2011, dated 2016).

pEC50, pIC50: −log10 of the molar value.

For one experiment, the system named is HIV-1 (H9IIIB strain). Briefly: Antiviral acute infection assay in cell culture (Spread). Type of experiment: cell-based. As to conditions: Human immunodeficiency virus 1, T-lymphoid, HIV-1 H9IIIB infection of MT-4 human T-lymphoid cells in 10% FBS; mean of at least two independent experiments. The text has this:
Antiviral Assays in Cell Culture (“Spread”)
Acute Infection Assay (“Spread”) data were generated using HIV-1 (H9IIIB strain) infection of MT-4 human T-lymphoid cells in 10% FBS, and according to the methods disclosed by J. P. Vacca et al, “L-735,524: An orally bioavailable human immunodeficiency virus type 1 protease inhibitor,” Proc. Natl. Acad. Sci. USA, Vol. 91, pp. 4096-4100 (April 1994).

In a further experiment the target is T1, wildtype HIV-1 protease (Human immunodeficiency virus type 1 group M subtype B, UniProt P04585).
T1 construct: the wildtype HIV-1 protease (which was expressed in Escherichia coli); made in house; host or cells: Escherichia coli
Briefly: Assay for inhibition of microbial expressed HIV protease (Pepcleav). As to conditions: wild type HIV-1 protease expressed in E. coli, peptide substrate, pH 5.5; mean of at least two independent experiments; read-out: Pepcleav. Format: biochemical. The method in brief: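 E. coli-expressed wild-type HIV-1 protease (20 pM) preincubated 30 min at room temperature with inhibitor in pH 5.5 sodium acetate/NaCl/BSA buffer, then 400 μM Val-Ser-Gln-Asn-(βnaphthyl)Ala-Pro-Ile-Val added for 1 h at 30 °C. Quenched with formic acid; product quantified by LC-MS/MS peak area, indinavir internal standard.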

In the case of `N[C@H](C(=O)Nc1cncc(F)c1CC[C@@H]1CN[C@H](COC(=O)NC[C@@H]2CCC(=O)N2)CO1)C(c1ccc(F)cc1)c1ccc(F)cc1` [Example 235, 4-fluoro-N-(5-fluoro-4-{2-[(2R,5S)-5-{[({[(2S)-5-oxopyrrolidin-2-yl]methyl}carbamoyl)oxy]methyl}morpholin-2-yl]ethyl}pyridin-3-yl)-β-(4-fluorophenyl)-L-phenylalaninamide], in the experiment on HIV-1 (H9IIIB strain), the pEC50 was 5.30. Further, on wildtype HIV-1 protease, the pIC50 is 7.01.
For `N[C@H](C(=O)Nc1cccc(F)c1CC[C@@H]1CN[C@H](COC(=O)NCC(F)(F)F)CO1)[C@H](c1ccccc1)c1ccc(OC(F)(F)F)cc1` [Example 236, (βR)-N-(3-fluoro-2-{2-[(2R,5S)-5-({[(2,2,2-trifluoroethyl)carbamoyl]oxy}methyl)morpholin-2-yl]ethyl}phenyl)-β-phenyl-O-(trifluoromethyl)-L-tyrosinamide] the same measures were 6.24 and 7.16.
With `N[C@H](C(=O)Nc1cc(F)ccc1CC[C@@H]1CN[C@H](COC(=O)NCC(F)F)CO1)C(c1ccccc1)c1ccccc1` [Example 237, N-(2-{2-[(2R,5S)-5-({[(2,2-difluoroethyl)carbamoyl]oxy}methyl)morpholin-2-yl]ethyl}-5-fluorophenyl)-β-phenyl-L-phenylalaninamide], the pEC50 with HIV-1 (H9IIIB strain) is 6.72. For the same molecule, the pIC50 on wildtype HIV-1 protease was 7.16.
For `N[C@H](C(=O)Nc1cncc(F)c1CC[C@@H]1CN[C@H](COC(=O)NCC(F)(F)F)CO1)[C@H](c1ccccc1)c1ccc(OC(F)(F)F)cc1` [Example 238, (βR)-N-(5-fluoro-4-{2-[(2R,5S)-5-({[(2,2,2-trifluoroethyl)carbamoyl]oxy}methyl)morpholin-2-yl]ethyl}pyridin-3-yl)-β-phenyl-O-(trifluoromethyl)-L-tyrosinamide] the same measures were 6.33 and 7.16.
In the experiment with HIV-1 (H9IIIB strain), `N[C@H](C(=O)Nc1cncc(F)c1CC[C@@H]1CN[C@H](COC(=O)NCc2cc3ccccc3cn2)CO1)C(c1ccc(F)cc1)c1ccc(F)cc1` [Example 239, {(3S,6R)-6-[2-(3-fluoro-5-{[4-fluoro-β-(4-fluorophenyl)-L-phenylalanyl]amino}pyridin-4-yl)ethyl]morpholin-3-yl}methyl (isoquinolin-3-ylmethyl)carbamatc] showed a pEC50 of 6.38. At wildtype HIV-1 protease, the pIC50 was 7.35.
In the case of `N[C@H](C(=O)Nc1cncc(F)c1CC[C@@H]1CN[C@H](COC(=O)NCC2CNC(=O)O2)CO1)C(c1ccc(F)cc1)c1ccc(F)cc1` (stereo partly drawn) [Example 240, 4-fluoro-N-[5-fluoro-4-(2-{(2R,5S)-5-[({[(2-oxo-1,3-oxazolidin-5-yl)methyl]carbamoyl}oxy)methyl]morpholin-2-yl}ethyl)pyridin-3-yl]-β-(4-fluorophenyl)-L-phenylalaninamide], in the experiment on HIV-1 (H9IIIB strain), the negative-log EC50 (pEC50) was 5.30. For the same molecule, the pIC50 on wildtype HIV-1 protease is 7.41.
In the experiment on HIV-1 (H9IIIB strain), `N[C@H](C(=O)Nc1cccc(F)c1CC[C@@H]1CN[C@H](COC(=O)NCC(F)(F)F)CO1)[C@H](c1ccccc1)c1ccc2ccccc2c1` [Example 241, (βR)-N-(3-fluoro-2-{2-[(2R,5S)-5-({[(2,2,2-trifluoroethyl)carbamoyl]oxy}methyl)morpholin-2-yl]ethyl}phenyl)-β-naphthalen-2-yl-L-phenylalaninamide] showed a pEC50 of 6.44. For the same molecule, the pIC50 at wildtype HIV-1 protease is 7.49.
`N[C@H](C(=O)Nc1cncc(F)c1CC[C@@H]1CN[C@H](COC(=O)NCc2nc3ccncc3[nH]2)CO1)C(c1ccc(F)cc1)c1ccc(F)cc1` [Example 242, 4-fluoro-N-(5-fluoro-4-{2-[(2R,5S)-5-({[(3H-imidazo[4,5-c]pyridin-2-ylmethyl)carbamoyl]oxy}methyl)morpholin-2-yl]ethyl}pyridin-3-yl)-β-(4-fluorophenyl)-L-phenylalaninamide] had a pEC50 in the experiment with HIV-1 (H9IIIB strain) of 6.22. Also, the pIC50 on wildtype HIV-1 protease is 7.60.
Molecule `N[C@H](C(=O)Nc1cncc(F)c1CC[C@@H]1CN[C@H](COC(=O)NCc2ccc3ccccc3n2)CO1)C(c1ccc(F)cc1)c1ccc(F)cc1` [Example 243, {(3S,6R)-6-[2-(3-fluoro-5-{[4-fluoro-β-(4-fluorophenyl)-L-phenylalanyl]amino}pyridin-4-yl)ethyl]morpholin-3-yl}methyl (quinolin-2-ylmethyl)carbamate] had a pEC50 in the experiment with HIV-1 (H9IIIB strain) of 6.62. For the same molecule, the pIC50 on wildtype HIV-1 protease is 7.62.
For the molecule `N[C@H](C(=O)Nc1cccc(F)c1CC[C@@H]1CN[C@H](COC(=O)NCC(F)(F)F)CO1)[C@H](c1ccccc1)c1cccc(Cl)c1` [Example 244, (βR)-3-chloro-N-(3-fluoro-2-{2-[(2R,5S)-5-({[(2,2,2-trifluoroethyl)carbamoyl]oxy}methyl)morpholin-2-yl]ethyl}phenyl)-β-phenyl-L-phenylalaninamide], in the experiment on HIV-1 (H9IIIB strain), the pEC50 was 6.92. Besides, the pIC50 on wildtype HIV-1 protease is 7.66.
Take `N[C@H](C(=O)Nc1cc(F)cc(F)c1OC[C@@H]1CN[C@H](COC(=O)NCC(F)(F)F)CO1)C(c1ccc(F)cc1)c1ccc(F)cc1` [Example 245, N-(3,5-difluoro-2-{[(2S,5S)-5-({[(2,2,2-trifluoroethyl)carbamoyl]oxy}methyl)morpholin-2-yl]methoxy}phenyl)-4-fluoro-β-(4-fluorophenyl)-L-phenylalaninamide]: the pEC50 in the experiment with HIV-1 (H9IIIB strain) was 6.44. Moreover, on wildtype HIV-1 protease, the pIC50 is 7.80.
On the same counts, the results for `N[C@H](C(=O)Nc1cncc(F)c1CC[C@@H]1CN[C@H](COC(=O)NCC(F)(F)F)CO1)[C@H](c1ccc(F)cc1)c1ccc(OC(F)(F)F)cc1` [Example 246, (βS)-β-(4-fluorophenyl)-N-(5-fluoro-4-{2-[(2R,5S)-5-({[(2,2,2-trifluoroethyl)carbamoyl]oxy}methyl)morpholin-2-yl]ethyl}pyridin-3-yl)-O-(trifluoromethyl)-L-tyrosinamide] are 6.41 and 7.89.
`N[C@H](C(=O)Nc1cc(F)cc(F)c1CC[C@@H]1CN[C@H](COC(=O)NCC(F)(F)F)CO1)C(c1ccc(F)cc1)c1ccc(F)cc1` [Example 247, N-(3,5-difluoro-2-{2-[(2R,5S)-5-({[(2,2,2-trifluoroethyl)carbamoyl]oxy}methyl)morpholin-2-yl]ethyl}phenyl)-4-fluoro-β-(4-fluorophenyl)-L-phenylalaninamide]: the pEC50 in the experiment with HIV-1 (H9IIIB strain) is 6.59. The pIC50 on wildtype HIV-1 protease is 7.92.
For `CCOCCNC(=O)OC[C@@H]1CO[C@H](CCc2c(F)cncc2NC(=O)[C@@H](N)C(c2ccc(F)cc2)c2ccc(F)cc2)CN1` [Example 248, N-(4-{2-[(2R,5S)-5-({[(2-ethoxyethyl)carbamoyl]oxy}methyl)morpholin-2-yl]ethyl}-5-fluoropyridin-3-yl)-4-fluoro-β-(4-fluorophenyl)-L-phenylalaninamide] the same measures were 7.26 and 8.01.
With `N[C@H](C(=O)Nc1cncc(F)c1CC[C@@H]1CN[C@H](CO)CO1)[C@@H](c1ccccc1)c1ccnc2ccccc12` [Example 249, (βS)-N-(5-fluoro-4-{2-[(2R,5R)-5-(hydroxymethyl)morpholin-2-yl]ethyl}pyridin-3-yl)-β-quinolin-4-yl-L-phenylalaninamide], in the experiment on HIV-1 (H9IIIB strain), the pEC50 was 5.52. Besides, on wildtype HIV-1 protease, the pIC50 was 8.03.

By pEC50 is commonly meant the EC50 on a negative log10 scale, so that one unit is a factor of ten. The low end stands for a high EC50, the high end for a low EC50.
